Laboratory results: patent US20070275948A1, “7-[4-(4-Chlorobenzyloxy)Benzenesulfonyl]-8-Methoxy-3-Methyl-2,3,4,5-Tetrahydro-1h-3-Benzazepinium Maleate Or Tosylate As antipyschotics” (priority 2003, published 2007)

Experiments:
[1] = Hygroscopicity / solid-state stability to humidity; conditions: for stability with respect to hygroscopicity and loss of water / changes when exposed to very high humidity: anhydrates; for stability over the free base and over the hydrochloride salt, particularly with respect to hygroscopicity: compared with free base and hydrochloride salt
[2] = target: dopamine D3 receptor (Homo sapiens, UniProt P35462); experiment: Affinity for dopamine D3 receptor; type: binding; conditions: for affinity for dopamine D3 relative to D2 receptors: D3 versus D2
[3] = target: dopamine D2 receptor (Homo sapiens, UniProt P14416); experiment: Affinity for dopamine D2 receptor; type: binding
[4] = target: T1, serotonin 5-HT2C receptor (Homo sapiens, UniProt P28335); experiment: Antagonist affinity for serotonin 5-HT2C receptor; type: binding
T1 sequence (P28335 33-458): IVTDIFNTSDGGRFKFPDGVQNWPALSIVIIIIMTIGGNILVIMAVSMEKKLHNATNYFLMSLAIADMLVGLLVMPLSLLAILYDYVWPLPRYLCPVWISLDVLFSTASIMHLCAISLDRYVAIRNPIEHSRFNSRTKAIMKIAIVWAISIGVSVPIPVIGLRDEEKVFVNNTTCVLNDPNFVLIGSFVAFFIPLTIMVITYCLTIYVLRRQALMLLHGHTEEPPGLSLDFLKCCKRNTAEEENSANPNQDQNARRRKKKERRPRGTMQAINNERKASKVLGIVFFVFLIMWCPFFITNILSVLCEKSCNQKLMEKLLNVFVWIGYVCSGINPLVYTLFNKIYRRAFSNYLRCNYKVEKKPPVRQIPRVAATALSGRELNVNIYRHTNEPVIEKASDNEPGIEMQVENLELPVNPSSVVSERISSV

dopamine D3 receptor, sequence (P35462 whole entry, species assumed): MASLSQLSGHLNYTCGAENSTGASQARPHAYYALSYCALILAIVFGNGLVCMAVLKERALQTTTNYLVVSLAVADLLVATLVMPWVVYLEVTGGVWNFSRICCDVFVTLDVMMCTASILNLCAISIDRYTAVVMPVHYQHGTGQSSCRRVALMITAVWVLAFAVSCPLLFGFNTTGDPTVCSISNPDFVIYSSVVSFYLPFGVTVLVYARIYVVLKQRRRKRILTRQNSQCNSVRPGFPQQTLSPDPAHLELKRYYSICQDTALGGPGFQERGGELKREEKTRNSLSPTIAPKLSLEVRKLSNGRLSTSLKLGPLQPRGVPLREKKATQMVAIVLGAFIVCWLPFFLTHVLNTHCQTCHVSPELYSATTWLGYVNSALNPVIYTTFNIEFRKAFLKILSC
dopamine D2 receptor, sequence (P14416 whole entry): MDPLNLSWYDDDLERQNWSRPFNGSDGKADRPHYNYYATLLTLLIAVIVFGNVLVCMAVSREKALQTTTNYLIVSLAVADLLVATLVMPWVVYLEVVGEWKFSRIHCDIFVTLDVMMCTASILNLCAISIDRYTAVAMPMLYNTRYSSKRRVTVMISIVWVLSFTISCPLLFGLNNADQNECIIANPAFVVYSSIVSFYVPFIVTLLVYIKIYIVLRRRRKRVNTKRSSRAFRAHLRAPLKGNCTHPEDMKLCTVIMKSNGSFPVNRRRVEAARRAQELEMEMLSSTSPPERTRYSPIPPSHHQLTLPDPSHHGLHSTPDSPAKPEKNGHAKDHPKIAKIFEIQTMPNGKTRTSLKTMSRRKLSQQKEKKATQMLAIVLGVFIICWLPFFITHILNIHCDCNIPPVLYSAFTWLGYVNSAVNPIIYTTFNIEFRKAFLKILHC

COc1cc2c(cc1S(=O)(=O)c1ccc(OCc3ccc(Cl)cc3)cc1)CCN(C)CC2 [free base, 7-[4-(4-chlorobenzyloxy)benzenesulfonyl]-8-methoxy-3-methyl-2,3,4,5-tetrahydro-1H-3-benzazepine]
hygroscopicity ([1]; multiple forms, all of those tested): hygroscopic

COc1cc2c(cc1S(=O)(=O)c1ccc(OCc3ccc(Cl)cc3)cc1)CCN(C)CC2.O=C(O)/C=C\C(=O)O [maleate, 7-[4-(4-chlorobenzyloxy)benzenesulfonyl]-8-methoxy-3-methyl-2,3,4,5-tetrahydro-1H-3-benzazepinium maleate]
affinity for dopamine D3 receptors [2]: exhibit affinity | affinity for dopamine D3 relative to D2 receptors [2]: greater affinity for dopamine D3 than for D2 receptors | affinity for dopamine D2 receptors [3]: exhibit affinity | antagonist affinity for the serotonin 5-HT2C receptor [4]: antagonist affinity | stability with respect to hygroscopicity and loss of water [1]: particular stability | changes when exposed to very high humidity [1]: reversible changes | stability over the free base and over the hydrochloride salt, particularly with respect to hygroscopicity [1]: improved stability

COc1cc2c(cc1S(=O)(=O)c1ccc(OCc3ccc(Cl)cc3)cc1)CCN(C)CC2.Cc1ccc(S(=O)(=O)O)cc1 [tosylate, 7-[4-(4-Chlorobenzyloxy)benzenesulfonyl]-8-methoxy-3-methyl-2,3,4,5-tetrahydro-1H-3-benzazepinium p-toluenesulfonate]
affinity for dopamine D3 receptors [2]: exhibit affinity | affinity for dopamine D3 relative to D2 receptors [2]: greater affinity for dopamine D3 than for D2 receptors | affinity for dopamine D2 receptors [3]: exhibit affinity | antagonist affinity for the serotonin 5-HT2C receptor [4]: antagonist affinity | stability with respect to hygroscopicity and loss of water [1]: particular stability | changes when exposed to very high humidity [1]: reversible changes | stability over the free base and over the hydrochloride salt, particularly with respect to hygroscopicity [1]: improved stability
